Measured values: patent publication EP0054589B1, “Organic phosphoric acid ester derivatives, a process for preparing the same and insecticidal, miticidal or nematocidal compositions containing the same” (priority 1980, dated 1982)

Assays:
smaller tea tortrix = assay: Insecticidal effect on smaller tea tortrix (apple leaf dip); assay type: in vivo; conditions: Adoxophyes orana, foliar; Table 9; 100 ppm; after 72 hours, 25°C; wettable powder as Formulation Example 5; read-out: Percent Mortality
Description: Leaves of an apple tree were dipped into a dilute water suspension of a wettable powder prepared as described in Formulation Example 5. After drying in air, the leaves were charged in a 60 ml volume cup made of vinyl chloride resin, and […] 3rd-instar larvae of smaller tea tortrix were put in each cup. The cups were capped and kept at 25°C. After 72 hours, the number of the surviving insects and the dead insects were recorded to determine percent mortality. In each treatment, 3 cups and 30 insects were used in total.

rice stem borer = assay: Insecticidal effect on rice stem borer, 3rd-instar larvae (rice seedling dip); assay type: in vivo, Chilo suppressalis; conditions: after 72 hours, 25°C
Outline: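 Wettable-powder formulations were diluted in water to set concentrations, and rice seedlings were dipped in them. Ten 3rd-instar larvae were placed per capped cup with the treated seedlings and held at 25°C.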

egg plant [1] = assay: Phytotoxicity observed visually in the mite test on egg plant; assay type: in vivo; parameters: key: —: None; +: Slightly toxic; ++: Toxic; +++: Strongly toxic; conditions: 500 ppm, observed visually on the 7th day after the application
Description: (§1) (A) An emulsifiable concentrate prepared as described in Formulation Example 1 and diluted to a predetermined concentration was sprayed using a spray-gun on a seedling of an egg plant placed in a pot of 12 cm in diametre to which plant carmine mites resistant to Kelthane were parasitic. After drying in air, seedlings were kept in a green house, and the number of living insects was recorded on the 7th, 14th, 21 st and 28th day from the day of application to determine the control effects. Three pots were used for each treatment. The control effect was assessed by the formula described in TEST EXAMPLE 7 above. Further, phytotoxicity was observed visually on the 7th day after the application.
as §1, with “(B) An” for “(A) An”, “Example 3” for “Example 1”, “in diameter” for “in diametre”, “in Test” for “in TEST”

Cabbage = assay: Phytotoxicity on various crops; assay type: in vivo; parameters: key: Symbol — indicates that no toxicity was observed; conditions: 500 ppm sprayed; checked visually after 10 days
Outline: (§2)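 Emulsifiable concentrate diluted in water to 500 ppm active ingredient and spray-gun applied to plants until thoroughly covered. Plants held in a greenhouse; phytotoxicity scored visually 10 days after application. Three replicates per compound.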

Beet = assay: Phytotoxicity on various crops; assay type: in vivo; parameters: key: Symbol — indicates that no toxicity was observed; conditions: 500 ppm sprayed; checked visually after 10 days
Outline: as §2

Cucumber = assay: Phytotoxicity on various crops; assay type: in vivo; parameters: key: Symbol — indicates that no toxicity was observed; conditions: 500 ppm sprayed; checked visually after 10 days
Outline: as §2

Apple = assay: Phytotoxicity on various crops; assay type: in vivo; parameters: key: Symbol — indicates that no toxicity was observed; conditions: 500 ppm sprayed; checked visually after 10 days
Outline: as §2

Green Pepper = assay: Phytotoxicity on various crops; assay type: in vivo; parameters: key: Symbol — indicates that no toxicity was observed; conditions: 500 ppm sprayed; checked visually after 10 days
Outline: as §2

Kidney Bean = assay: Phytotoxicity on various crops; assay type: in vivo; parameters: key: Symbol — indicates that no toxicity was observed; conditions: 500 ppm sprayed; checked visually after 10 days
Outline: as §2

Rice = assay: Phytotoxicity on various crops; assay type: in vivo; parameters: key: Symbol — indicates that no toxicity was observed; conditions: 500 ppm sprayed; checked visually after 10 days
Outline: as §2

Tomato = assay: Phytotoxicity on various crops; assay type: in vivo; parameters: key: Symbol — indicates that no toxicity was observed; conditions: 500 ppm sprayed; checked visually after 10 days
Outline: as §2

Tea = assay: Phytotoxicity on various crops; assay type: in vivo; parameters: key: Symbol — indicates that no toxicity was observed; conditions: 500 ppm sprayed; checked visually after 10 days
Outline: as §2

Cotton = assay: Phytotoxicity on various crops; assay type: in vivo; parameters: key: Symbol — indicates that no toxicity was observed; conditions: 500 ppm sprayed; checked visually after 10 days
Outline: as §2

egg plant [2] = assay: Phytotoxicity on various crops; assay type: in vivo; parameters: key: Symbol — indicates that no toxicity was observed; conditions: 500 ppm sprayed; checked visually after 10 days
Outline: as §2

diamond back moth = assay: Insecticidal effect on diamond-back moth (cabbage leaf dip); assay type: in vivo, Plutella xylostella; conditions: 100 ppm, after 72 hours, 25°C
Outline: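 Cabbage leaves dipped 10 s in water-diluted emulsifiable concentrate at set concentration, air-dried; thirty 3rd-instar diamond-back moth larvae per cup held at 25°C. Percent mortality scored after 72 h, three replicates per treatment.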

[3] = Table 1, 500 ppm, wettable powder as Formulation Example 5
[4] = Table 7, emulsifiable concentrate as Formulation Example 1

SMILES | mortality at 100 ppm (smaller tea tortrix) | Percent Mortality (%) (rice stem borer; [3]) | Phytotoxicit (egg plant [1]; Table 13) | Phytotoxicity: Cabbage (Cabbage) | Phytotoxicity: Beet (Beet) | Phytotoxicity: Cucumber (Cucumber) | Phytotoxicity: Apple (Apple) | Phytotoxicity: Green Pepper (Green Pepper) | Phytotoxicity: Kidney Bean (Kidney Bean) | Phytotoxicity: Rice (Rice) | Phytotoxicity: Tomato (Tomato) | Phytotoxicity: Tea (Tea) | Phytotoxicity: Cotton (Cotton) | Phytotoxicity: Egg Plant (egg plant [2]) | Percent Mortality (%) (diamond back moth; [4]) | Phytotoxicit (egg plant [1]; Table 14) | Percent Mortality (%) (rice stem borer; Table 1, 100 ppm, wettable powder as Formulation Example 5) | Percent Mortality (%) (rice stem borer; Table 2, 100 ppm, wettable powder as Formulation Example 7) | Percent Mortality (%) (diamond back moth; Table 8, emulsifiable concentrate as Formulation Example 4)
CCCSP(=O)(OC)Oc1ccc2c(c1)OC(C)=CC2(C)C (centres unmarked) [Compound No. 1] | 100% | 100% | — | — | — | — | — | — | — | — | — | — | — | — | 100% |  |  |  | 
CCCSP(=O)(OCC)Oc1ccc2c(c1)OC(C)=CC2(C)C (centres unmarked) [Compound No. 2, O-ethyl-S-propyl-O-(2,4,4-trimethyl-1,4-benzopyran-7-yl)phosphorothioate] | 100% | 100% | — | — | — | — | — | — | — | — | — | — | — | — | 100% |  |  |  | 
CCCSP(=S)(OC)Oc1ccc2c(c1)OC(C)=CC2(C)C (centres unmarked) [Compound No. 9, 0-methyl-S-propyl-(2,4,4-trimethyl-1,4-benzopyran-7-yl)phosphorodithioate] | 100% | 100% | — | — | — | — | — | — | — | — | — | — | — | — | 100% |  |  |  | 
CCCSP(=S)(OCC)Oc1ccc2c(c1)OC(C)=CC2(C)C (centres unmarked) [Compound No. 10] | 96.7% | 100% | — | — | — | — | — | — | — | — | — | — | — | — | 100% | — |  |  | 
CCCSP(=O)(OCC)Oc1ccc2c(c1)OC(C)(C)C=C2C (centres unmarked) [Compound No. 20, O-ethyl-S-propyl-0-(2,2,4-trimethyl-1,2-benzopyran-7-yl)phosphorothioate] |  | 100% |  | — | — | — | — | — | — | — | — | — | — | — | 100% |  | 100% | 100% | 100%
